pKi: −log10 of the molar value.

One may read the pKi as the Ki on a negative log10 scale, so that one unit is a factor of ten. A lower pKi goes with a large Ki.

The target in experiment [1] is 5-hydroxytryptamine receptor 2B (Homo sapiens, UniProt P41595).
Experiment [2] concerns the target T1, 5-hydroxytryptamine receptor 2C (Homo sapiens, UniProt P28335).
T1 sequence (P28335 whole entry): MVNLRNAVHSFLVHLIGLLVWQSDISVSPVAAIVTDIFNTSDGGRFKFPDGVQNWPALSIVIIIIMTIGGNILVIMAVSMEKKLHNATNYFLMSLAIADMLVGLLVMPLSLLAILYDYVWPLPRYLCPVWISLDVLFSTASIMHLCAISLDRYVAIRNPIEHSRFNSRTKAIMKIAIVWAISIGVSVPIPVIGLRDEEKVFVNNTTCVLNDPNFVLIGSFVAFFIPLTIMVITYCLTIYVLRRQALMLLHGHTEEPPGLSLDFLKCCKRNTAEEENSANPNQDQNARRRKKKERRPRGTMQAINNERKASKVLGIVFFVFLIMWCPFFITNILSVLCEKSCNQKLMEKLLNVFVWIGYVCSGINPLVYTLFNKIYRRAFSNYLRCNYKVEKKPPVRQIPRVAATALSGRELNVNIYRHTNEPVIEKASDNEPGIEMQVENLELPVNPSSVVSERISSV

Experiment [3] deals with 5-hydroxytryptamine receptor 2A (Homo sapiens, UniProt P28223).
Sequence of 5-hydroxytryptamine receptor 2A (P28223 whole entry): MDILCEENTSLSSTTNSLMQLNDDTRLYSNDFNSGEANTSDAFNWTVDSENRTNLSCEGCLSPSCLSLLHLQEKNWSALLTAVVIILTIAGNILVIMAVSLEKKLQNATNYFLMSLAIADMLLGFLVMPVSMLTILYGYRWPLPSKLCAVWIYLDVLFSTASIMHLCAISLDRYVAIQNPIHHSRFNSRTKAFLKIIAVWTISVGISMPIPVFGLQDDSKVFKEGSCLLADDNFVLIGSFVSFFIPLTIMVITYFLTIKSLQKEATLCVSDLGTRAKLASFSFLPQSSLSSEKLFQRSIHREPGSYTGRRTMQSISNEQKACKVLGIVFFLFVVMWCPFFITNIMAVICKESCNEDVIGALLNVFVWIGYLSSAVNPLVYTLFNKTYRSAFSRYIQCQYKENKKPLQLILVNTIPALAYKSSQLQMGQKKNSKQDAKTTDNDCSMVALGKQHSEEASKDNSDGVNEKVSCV

Sequence of 5-hydroxytryptamine receptor 2B (P41595 whole entry): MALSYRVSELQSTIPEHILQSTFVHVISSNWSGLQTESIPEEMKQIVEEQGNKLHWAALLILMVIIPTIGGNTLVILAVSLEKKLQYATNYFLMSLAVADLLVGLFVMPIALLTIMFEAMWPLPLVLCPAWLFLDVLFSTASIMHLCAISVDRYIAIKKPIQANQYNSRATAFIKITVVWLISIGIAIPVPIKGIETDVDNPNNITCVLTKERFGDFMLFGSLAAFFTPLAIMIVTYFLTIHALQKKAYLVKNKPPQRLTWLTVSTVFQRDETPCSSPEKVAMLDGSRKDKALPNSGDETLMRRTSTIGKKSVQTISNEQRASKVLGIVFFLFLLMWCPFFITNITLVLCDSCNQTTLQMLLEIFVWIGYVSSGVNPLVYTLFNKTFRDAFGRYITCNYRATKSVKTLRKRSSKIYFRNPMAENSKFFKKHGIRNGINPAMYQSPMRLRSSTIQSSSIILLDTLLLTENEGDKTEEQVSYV

For the compound `CCCc1c(COc2ccc(C=NN=C(N)N)c(OC)c2)ccc(C(=O)CC)c1O` [LY 320950], the pKi is 6.33 in experiment [1], 6.73 in experiment [2] and 6.61 in experiment [3].
`CCc1c(COc2ccc(C=O)cc2)ccc(C(C)=O)c1O` [LY 335102]: the figures for the negative-log Ki (pKi) in experiment [1] and in experiment [2] were 5.10 and 5.01, respectively.
Turning to `CCCc1c(COc2ccc(C=NN=C(N)N)cc2)ccc(C(C)=O)c1O` [LY 314228], the results for the pKi in experiment [1], in experiment [2] and in experiment [3] were 5.92, 6.77 and 7.19, respectively.
On to `NC(N)=NN=C(c1ccccc1)C1CCC(Cl)S1` (stereo not drawn) [LY 063518], for which the pKi in experiment [1] is 6.33; in experiment [2], 5.78; in experiment [3], 6.86.
For `CCCc1c(COc2ccc(C=NN=C(N)N)cc2)ccc(C(=O)CC)c1O` [LY 320954], in that order: 5.78, 6.59 and 7.02.
For `Cc1ccc(C)c(COc2ccc(C=NN=C(N)N)cc2)c1` [LY 334359], in that order: 6.41, 6.40 and 6.24.
For `NC(N)=NN=Cc1cccc(OCc2ccc(C(=O)c3ccccc3)cc2)c1` [LY 334362], in that order: 6.32, 7.04 and 6.75.
For `CCCc1cc(C(C)(C)C)ccc1Oc1cccc(C=NN=C(N)N)c1` [LY 320951], the figures for the pKi in experiment [1], in experiment [2] and in experiment [3] were 5.53, 5.93 and 6.08, respectively.

The values above are taken from BindingDB's records for doi:10.1016/0024-3205(96)00449-3 (Eli Lilly, 1996).
